Assay results as given in patent US20240285683A1, “Compositions And Methods For Enhancing Immunotherapy” (The Trustees of Princeton University, priority 2017, published 2024).

Test system: Naïve CD8+ T cells
Source text: Naïve CD8+ T cells were isolated from mouse spleen. Cells were activated at a cell density of 10^6 cells/mL using plate-bound αCD3/αCD28+100 U/mL TL2 in RPMI containing 10% FBS.

O=CO [formate]
cell size at day 1 post activation (1 mM formate in media, from 9.5 μm without formate): 10.2 μm
extent of cells showing cell surface activation markers (CD25+, CD69+) (1 mM formate, from 78% without formate): 88%
reduction of NADH concentration (formate, p<0.005): 1.8 fold
dead cells (growing CD8+ T cells, from 10% without formate): 5%
